Values joined by “and” are separate entries in the source; they are usually repeats but may differ in a detail not shown here. Equal entries are not always repeated.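 In this assay, cells in 96-well plates receive the compound at five concentrations for 48 hours. Endpoints are linearly interpolated between the surrounding concentrations. The concentration for 50% growth inhibition is given as GI50. TGI marks complete inhibition of growth.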
Key:
Experiment in all cases: DTP human tumour cell line panel, 48 h
ACHN renal = system: ACHN renal
LOX IMVI melanoma = system: LOX IMVI melanoma
PC-3 prostate = system: PC-3 prostate
SK-OV-3 ovarian = system: SK-OV-3 ovarian
HOP-92 NSCLC = system: HOP-92 NSCLC
SF-295 CNS = system: SF-295 CNS
HCT-15 colon = system: HCT-15 colon
RXF 393 renal = system: RXF 393 renal
HOP-62 NSCLC = system: HOP-62 NSCLC
MCF7 breast = system: MCF7 breast

| SMILES | GI50 (ACHN renal) | TGI (ACHN renal) | GI50 (LOX IMVI melanoma) | TGI (LOX IMVI melanoma) | GI50 (PC-3 prostate) | TGI (PC-3 prostate) | GI50 (SK-OV-3 ovarian) | TGI (SK-OV-3 ovarian) | GI50 (HOP-92 NSCLC) | TGI (HOP-92 NSCLC) | GI50 (SF-295 CNS) | TGI (SF-295 CNS) | GI50 (HCT-15 colon) | TGI (HCT-15 colon) | GI50 (RXF 393 renal) | TGI (RXF 393 renal) | GI50 (HOP-62 NSCLC) | TGI (HOP-62 NSCLC) | GI50 (MCF7 breast) | TGI (MCF7 breast) |
| --- | --- | --- | --- | --- | --- | --- | --- | --- | --- | --- | --- | --- | --- | --- | --- | --- | --- | --- | --- | --- |
| COC(=O)c1ccc(NC(=O)Oc2ccc(N(CCCl)CCCl)cc2)cc1 | 1.4 µM | 16.4 µM | 3.69 µM | > 100 µM | 11.4 µM | > 100 µM | 4.41 µM | 29.5 µM | 14.3 µM | 53.4 µM | 1.38 µM | 11.4 µM | 11.2 µM | > 100 µM | 6.28 µM | 32.3 µM | 3.99 µM | 24.8 µM | 1.6 µM | > 100 µM |
| CCCCCCCCCCCCCC[C@@H](O)[C@H]1CC[C@H]([C@H]2CC[C@H]([C@H](O)CCCCCC[C@@H](O)CC3=C[C@H](C)OC3=O)O2)O1 | 1.02 µM | – | – | 2.56 µM and > 25 µM | 2.13 µM | 7.31 µM and > 25 µM | – | > 25 µM | > 25 µM | 8.37 µM and > 25 µM | 1.18 µM | > 25 µM | 2.42 µM | 5.38 µM and > 25 µM | 2.72 µM | > 25 µM | 2.74 µM | > 25 µM | 1.14 µM | 3.47 µM and > 25 µM |
| CN1CCN(CCCOc2cccc3nc(Nc4ccc(Cl)c(C(F)(F)F)c4)ccc23)CC1 | 1.59 µM | 3.07 µM | 1.56 µM | 3.07 µM | 1.57 µM | 3.03 µM | 1.99 µM | 4.35 µM | 1.02 µM | 3.69 µM | 1.8 µM | 3.38 µM | 1.22 µM | 2.64 µM | 1.63 µM | 3.44 µM | 1.7 µM | 3.32 µM | 1.41 µM | 2.99 µM |
| CN(Cc1cnc2nc(N)nc(N)c2n1)c1ccc(C(=O)NC(CCC(=O)O)C(=O)O)cc1Br (stereo unspecified) | < 0.01 µM | > 100 µM | < 0.01 µM | 2.1 µM | < 0.01 µM | > 100 µM | 0.047 µM | > 100 µM | 1.47 µM | 23.1 µM | < 0.01 µM | 0.201 µM | < 0.01 µM | > 100 µM | 0.459 µM | 5.01 µM | < 0.01 µM | – | < 0.01 µM | > 100 µM |
| COc1cc2nc3cc([N+](=O)[O-])ccc3c(NCCNCC(C)(C)O)c2cc1OC | 0.657 µM | 4.19 µM | 0.715 µM | 2.51 µM | 0.581 µM | 2.47 µM | 2.01 µM | 6.51 µM | 0.503 µM | 2.43 µM | 0.517 µM | 3.13 µM | 3.4 µM | 12.8 µM | 1.07 µM | 2.87 µM | 0.953 µM | 3.26 µM | 0.372 µM | 2.04 µM |
| CCN(CC)Cc1cc2[nH]c3c4ccc(Cl)cc4ncc3c2cc1OC | 5.68 µM and 1.98 µM | 16.3 µM and 4.98 µM | 1.73 µM and 1.7 µM | 3.43 µM and 3.23 µM | 3.18 µM and 1.99 µM | 16 µM and 6.8 µM | 14.2 µM and 3.63 µM | 27.3 µM and 12.1 µM | 5.14 µM | 22.1 µM | 4.98 µM and 1.95 µM | 9.67 µM and 4.01 µM | 2.05 µM and 2.46 µM | 8.66 µM and 6.94 µM | 2.07 µM and 1.68 µM | 4.25 µM and 3.27 µM | 5.41 µM and 2.01 µM | 11.7 µM and 9.34 µM | 2.17 µM and 1.61 µM | 8.37 µM and 3.29 µM |
| O=C(CN1C(=O)S/C(=C\C(Cl)=C\c2ccccc2)C1=O)NC1C=CS(=O)(=O)C1 (stereo unspecified) | 0.931 µM | 8.65 µM | 0.24 µM | 0.624 µM | 2.15 µM | 7.33 µM | 3.3 µM | 32.6 µM | 1.67 µM | 5.75 µM | 2.32 µM | 5.19 µM | 0.378 µM | 3.47 µM | 0.849 µM | 2.18 µM | 2.97 µM | 11.1 µM | 0.467 µM | > 100 µM |
| CC1=C(C(=O)Nc2ccc(Cl)c(C(=O)OC(C)C)c2)SCCO1 | – | > 100 µM | – | 84.6 µM | – | > 100 µM | – | > 81.1 µM | – | > 100 µM | – | > 80.7 µM | – | > 100 µM | – | > 97.7 µM | – | > 100 µM | – | > 90.4 µM |
| CSc1ccc2c(c1)C(N1CCN(C)CC1)Cc1ccccc1S2 (stereo unspecified) | 1.96 µM | 12.2 µM and 3.95 µM | 1.63 µM | 4.05 µM and 3.05 µM | 1.89 µM | 17.6 µM and 6.51 µM | 2.01 µM | 27.3 µM and 4.25 µM | 0.393 µM | 7.77 µM and 2.62 µM | 1.84 µM | 15.2 µM and 3.7 µM | 2.83 µM | 16.4 µM and 7.41 µM | 1.54 µM | 14 µM and 3.39 µM | 1.8 µM | 23.6 µM and 3.29 µM | 1.79 µM | 7.22 µM and 3.58 µM |
| Cc1cc(Cl)nc(N(CCCNc2ccnc3cc(Cl)ccc23)Cc2ccco2)n1 | 3 µM | 12 µM | 2.07 µM | 5.4 µM | 1.87 µM | 6 µM | 2.45 µM | 8.22 µM | 0.779 µM | 4.19 µM | 1.28 µM | 2.81 µM | 1.99 µM | 7.61 µM | 1.41 µM | 4.55 µM | 1.59 µM | 5.65 µM | 1.81 µM | 6.1 µM |
| CCOC(=O)c1cnc2c(C)cccc2c1Nc1ccc(C(C)=O)cc1 | 33.5 µM | > 100 µM | 47 µM | > 100 µM | 36.6 µM | > 100 µM | 75.8 µM | > 100 µM | 8.95 µM | 36.9 µM | 36.2 µM | > 100 µM | 20.7 µM | > 100 µM | 4.23 µM | 63.8 µM | 39.7 µM | > 100 µM | 28 µM | > 100 µM |
| COc1ccc(N(C)c2nc(N)nc3sc4c(c23)CCCC4)cc1 | < 0.01 µM | 14.6 µM | < 0.01 µM | 15.3 µM | < 0.01 µM | 15.6 µM | < 0.013 µM | 14.2 µM | < 0.0187 µM | 6.81 µM | < 0.01 µM | 13.1 µM | < 0.01 µM | 13 µM | < 0.01 µM | 20.7 µM | 0.275 µM | 18.8 µM | < 0.01 µM | 14.8 µM |
| Cn1ncc(Cl)c1-c1cc(C(=O)N[C@H](CN)Cc2ccc(F)c(F)c2)oc1Cl | 2.23 µM and 1.86 µM | 14.2 µM and > 10 µM | 2.65 µM and 1.44 µM | 19.9 µM and 4.19 µM | 0.263 µM and 0.133 µM | 9.07 µM and > 6.73 µM | 0.232 µM and 0.259 µM | 3.75 µM and 5.04 µM | 0.139 µM and 0.191 µM | 2.42 µM and 1.42 µM | 0.145 µM and 0.111 µM | 5.04 µM and 3.27 µM | 1.16 µM and 0.662 µM | 13.8 µM and > 10 µM | 0.0361 µM and 0.0338 µM | 0.534 µM and 0.705 µM | 2.14 µM and 2.7 µM | 14 µM and > 10 µM | 0.257 µM and 0.139 µM | 9.66 µM and 2.89 µM |

— PubChem BioAssay (NCI)
